Experimental data taken from ChEMBL document CHEMBL1201862, “PubChem BioAssay data set” (2004).
Several values for one entry are separate records, joined by “and”; a condition that tells them apart may be missing. Equal entries are not always repeated.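 A five-concentration, 48-hour dose response in 96-well plates underlies each endpoint, interpolated linearly between surrounding concentrations. GI50: concentration for 50% inhibition of growth.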 Activity calls are given as the source filed them. No stated cut-off is given here; in the data, active = GI50 up to about 1.1 µM and inactive = higher.

Key:
Test in all cases: NCI-60 cell line screen, 48 h
SF-268 = tested on: SF-268
SW-620 = tested on: SW-620
ACHN = tested on: ACHN
A549 = tested on: A549
K562 = tested on: K562
SK-OV-3 = tested on: SK-OV-3
NCI/ADR-RES = tested on: NCI/ADR-RES
Malme-3M = tested on: Malme-3M
LOX IMVI = tested on: LOX IMVI
NCI-H23 = tested on: NCI-H23
UACC-257 = tested on: UACC-257
MDA-N = tested on: MDA-N
OVCAR-8 = tested on: OVCAR-8
UACC-62 = tested on: UACC-62
SK-MEL-28 = tested on: SK-MEL-28
RXF 393 = tested on: RXF 393
M14 = tested on: M14
SNB-19 = tested on: SNB-19
U-251 = tested on: U-251
MOLT-4 = tested on: MOLT-4

Row | SMILES | GI50 (SF-268) | GI50 (SW-620) | GI50 (ACHN) | GI50 (A549) | GI50 (K562) | GI50 (SK-OV-3) | GI50 (NCI/ADR-RES) | GI50 (Malme-3M) | GI50 (LOX IMVI) | GI50 (NCI-H23) | GI50 (UACC-257) | GI50 (MDA-N) | GI50 (OVCAR-8) | GI50 (UACC-62) | GI50 (SK-MEL-28) | GI50 (RXF 393) | GI50 (M14) | GI50 (SNB-19) | GI50 (U-251) | GI50 (MOLT-4)
1 | O=C1Nc2ccccc2C1(O)Cc1ccccn1 (configuration not stated) | > 100 µM (inactive) | > 100 µM (inactive) | > 100 µM (inactive) | > 100 µM (inactive) | > 100 µM (inactive) | > 100 µM (inactive) | > 100 µM (inactive) | > 100 µM (inactive) | > 100 µM (inactive) | > 100 µM (inactive) | > 100 µM (inactive) | > 100 µM (inactive) | > 100 µM (inactive) | > 100 µM (inactive) | > 100 µM (inactive) | > 100 µM (inactive) | > 100 µM (inactive) | > 100 µM (inactive) | > 100 µM (inactive) | –
2 | CSC(=O)c1sc(SC)[n+](-c2ccccc2)c1O | 16.4 µM (inactive) | 15.5 µM (inactive) | 27.9 µM (inactive) | > 100 µM (inactive) | 16.6 µM (inactive) | 34.4 µM (inactive) | 30.3 µM (inactive) | 21.6 µM (inactive) | 12.6 µM (inactive) | 17.7 µM (inactive) | – | 17 µM (inactive) | 22.8 µM (inactive) | 15.6 µM (inactive) | 17.7 µM (inactive) | 14.5 µM (inactive) | 14.3 µM (inactive) | 19.6 µM (inactive) | 16.5 µM (inactive) | 11.1 µM (inactive)
3 | S=c1[nH]nc(Cn2c3ccc(Br)cc3c3nc4ccccc4nc32)o1 | > 60.5 µM (inactive) | 18.7 µM (inactive) | 39.6 µM (inactive) | 22.8 µM (inactive) | 35.1 µM (inactive) | > 78.5 µM (inactive) | 74.5 µM (inactive) | 42.3 µM (inactive) | – | 25.2 µM (inactive) | > 58.6 µM (inactive) | 41 µM (inactive) | 43.2 µM (inactive) | 27.5 µM (inactive) | 27.3 µM (inactive) | 14.8 µM (inactive) | 4.55 µM (inactive) | 53 µM (inactive) | 0.944 µM (active) | 27.1 µM (inactive)
4 | CN(CCNC(=O)c1cn(C)c2c1ccc1ccccc12)CCNC(=O)c1cn(C)c2c1ccc1ccccc12 | 2.69 µM (inactive) | 2.7 µM (inactive) | 3.36 µM (inactive) | 3.59 µM (inactive) | 0.365 µM (active) | 8.04 µM (inactive) | 7.82 µM (inactive) | 2.14 µM (inactive) | 2.52 µM (inactive) | 3.14 µM (inactive) | 2.12 µM (inactive) | 2.22 µM (inactive) | 27.9 µM (inactive) | 2.7 µM (inactive) | 1.97 µM (inactive) | – | 1.95 µM (inactive) | 3.57 µM (inactive) | 2.04 µM (inactive) | 2.55 µM (inactive)
5 | Cc1ccc2nc(N/N=C/c3cccc(C)n3)cc(C)c2c1 | 17.2 µM (inactive) | 17.1 µM (inactive) | 15.7 µM (inactive) | 16 µM (inactive) | 45 µM (inactive) | 15.4 µM (inactive) | 16.2 µM (inactive) | 16 µM (inactive) | 15.1 µM (inactive) | 18.8 µM (inactive) | 16.9 µM (inactive) | 16.3 µM (inactive) | 20.5 µM (inactive) | 15.2 µM (inactive) | 17.1 µM (inactive) | 16.5 µM (inactive) | 24.2 µM (inactive) | 20.5 µM (inactive) | 16.9 µM (inactive) | –
6 | Cc1ccc(/C=C2\CCS(=O)(=O)c3ccccc3C2=O)cc1 | 18.3 µM (inactive) | 18.1 µM (inactive) | 15.2 µM (inactive) | 35.6 µM (inactive) | > 100 µM (inactive) | 21.7 µM (inactive) | 11.5 µM (inactive) | – | 15.2 µM (inactive) | 15.5 µM (inactive) | 18.5 µM (inactive) | 28 µM (inactive) | 13.9 µM (inactive) | 17.3 µM (inactive) | 17.8 µM (inactive) | 22.7 µM (inactive) | 26.1 µM (inactive) | 16.1 µM (inactive) | 14 µM (inactive) | 9.1 µM (inactive)
7 | Oc1ccc(-c2cc(-c3c(O)cc(O)cc3O)on2)cc1 | 44.3 µM (inactive) | 65.6 µM (inactive) | 36.4 µM (inactive) | 54.2 µM (inactive) | 40.5 µM (inactive) | 56.5 µM (inactive) | > 100 µM (inactive) | 70.5 µM (inactive) | 55.1 µM (inactive) | > 100 µM (inactive) | 97.5 µM (inactive) | 50.2 µM (inactive) | 55.6 µM (inactive) | 31.3 µM (inactive) | 52.8 µM (inactive) | – | > 100 µM (inactive) | 91.2 µM (inactive) | 64.7 µM (inactive) | 38.5 µM (inactive)
8 | Cc1cc(C)nc(NS(=O)(=O)c2ccc(Nc3c4ccccc4nc4c(C(=O)NCCO)cccc34)cc2)n1 | 14.5 µM (inactive) | 16.7 µM (inactive) | 19.7 µM (inactive) | 29.6 µM (inactive) | 12.4 µM (inactive) | 44.9 µM (inactive) | 48.5 µM (inactive) | 14.8 µM (inactive) | 10.6 µM (inactive) | 23.8 µM (inactive) | > 10 µM (inactive) | 18.1 µM (inactive) | 8.24 µM (inactive) | 21.5 µM (inactive) | 19.6 µM (inactive) | – | 31.1 µM (inactive) | 16.6 µM (inactive) | 17.1 µM (inactive) | 4.79 µM (inactive)
9 | CCOP(=O)(/C=C\n1cc(C)c(=O)[nH]c1=O)OCC | > 100 µM (inactive) | > 100 µM (inactive) | > 100 µM (inactive) | > 100 µM (inactive) | > 100 µM (inactive) | > 100 µM (inactive) | > 100 µM (inactive) | – | > 100 µM (inactive) | > 100 µM (inactive) | > 100 µM (inactive) | > 100 µM (inactive) | > 100 µM (inactive) | > 100 µM (inactive) | > 100 µM (inactive) | > 100 µM (inactive) | > 100 µM (inactive) | > 100 µM (inactive) | > 100 µM (inactive) | > 100 µM (inactive)
10 | C=CCN(c1cc(OC)c2c(c1[N+](=O)[O-])C(C)(SC)C(=O)N2)S(C)(=O)=O (configuration not stated) | 83.6 µM (inactive) | > 100 µM (inactive) | > 100 µM (inactive) | > 100 µM (inactive) | > 100 µM (inactive) | > 100 µM (inactive) | > 100 µM (inactive) | 97.5 µM (inactive) | > 100 µM (inactive) | > 100 µM (inactive) | > 100 µM (inactive) | > 100 µM (inactive) | > 100 µM (inactive) | 71.4 µM (inactive) | > 100 µM (inactive) | – | – | 96.6 µM (inactive) | > 100 µM (inactive) | –
11 | c1ccc2c(c1)SCCCSCCSCCCS2 | > 100 µM (inactive) | > 100 µM (inactive) | – | > 100 µM (inactive) | > 100 µM (inactive) | > 100 µM (inactive) | > 100 µM (inactive) | – | > 100 µM (inactive) | > 100 µM (inactive) | > 100 µM (inactive) | > 100 µM (inactive) | > 100 µM (inactive) | > 100 µM (inactive) | > 100 µM (inactive) | – | > 100 µM (inactive) | > 100 µM (inactive) | > 100 µM (inactive) | > 100 µM (inactive)
12 | c1ccc(-c2nnn(CCN3CCCCC3)n2)cc1 | > 100 µM (inactive) | > 100 µM (inactive) | > 100 µM (inactive) | > 100 µM (inactive) | > 100 µM (inactive) | > 100 µM (inactive) | > 100 µM (inactive) | > 100 µM (inactive) | > 100 µM (inactive) | > 100 µM (inactive) | > 100 µM (inactive) | > 100 µM (inactive) | > 100 µM (inactive) | > 100 µM (inactive) | > 100 µM (inactive) | > 100 µM (inactive) | > 100 µM (inactive) | > 100 µM (inactive) | > 100 µM (inactive) | –
13 | CN1CC[C@]2(c3cccc(O)c3)CC(=O)/C(=C/c3ccc(Cl)c(Cl)c3)[C@@H]1C2 | 1.71 µM (inactive) | 1.14 µM (inactive) | 1.15 µM (inactive) | 1.6 µM (inactive) | 0.296 µM (active) | – | 1.54 µM (inactive) | 1.45 µM (inactive) | 0.175 µM (active) | 1.53 µM (inactive) | 1.49 µM (inactive) | 0.552 µM (active) | 1.49 µM (inactive) | – | 1.55 µM (inactive) | 0.427 µM (active) | 1.15 µM (inactive) | 1.75 µM (inactive) | 0.975 µM (active) | 0.273 µM (active)
14 | Clc1n[nH]c2ccccc12 | > 100 µM (inactive) | > 100 µM (inactive) | > 100 µM (inactive) | > 100 µM (inactive) | > 100 µM (inactive) | > 100 µM (inactive) | > 100 µM (inactive) | > 100 µM (inactive) | – | > 100 µM (inactive) | > 100 µM (inactive) | > 100 µM (inactive) | > 100 µM (inactive) | > 100 µM (inactive) | > 100 µM (inactive) | > 100 µM (inactive) | > 100 µM (inactive) | > 100 µM (inactive) | > 100 µM (inactive) | > 100 µM (inactive)
15 | O=c1c(Cl)c(Cl)cnn1-c1ccccc1 | 5.05 µM (inactive) and 6.64 µM (inactive) | – | 7.11 µM (inactive) and 5.04 µM (inactive) | 20.3 µM (inactive) and 10.8 µM (inactive) | 968 nM (active) and 929 nM (active) | – | 2 µM (inactive) | 3.46 µM (inactive) and 3.02 µM (inactive) | 1.8 µM (inactive) and 1.19 µM (inactive) | – | 13 µM (inactive) and 6.85 µM (inactive) | 2.14 µM (inactive) and 1.81 µM (inactive) | 3.85 µM (inactive) and 2.39 µM (inactive) | 1.67 µM (inactive) and 2.21 µM (inactive) | 3.4 µM (inactive) and 2.3 µM (inactive) | 1.9 µM (inactive) and 2.52 µM (inactive) | 1.74 µM (inactive) and 1.76 µM (inactive) | – | 3.51 µM (inactive) and 1.79 µM (inactive) | 1.82 µM (inactive) and 1.47 µM (inactive)
